Laboratory results taken from patent publication US20060069132A1, “Azolecarboxamide herbicides” (priority 2004, published 2006).

Experiments:
[1] = tested on: barnyardgrass; experiment: Test B flooded paddy test; type: in vivo, Echinochloa crus-galli; conditions: 1000 g ai/ha, visual rating, scale 0 to 100 (0 no effect, 100 complete control), 13 to 15 days
Method in brief: (§1)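 Each value is a visual 0–100 response rating taken against controls 13 to 15 days after treatment in the greenhouse. Plants received formulated chemical postemergence at the 1- to 4-leaf stage or, in flooded paddy, at the 2-leaf stage.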

[2] = tested on: large crabgrass; experiment: Test A pre-/postemergence herbicide test; type: in vivo, Digitaria sanguinalis
Method in brief: (§2)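 Sandy loam soil given preemergence directed spray; plants at 2 to 10 cm, one- to two-leaf stage, sprayed to runoff postemergence, compounds in non-phytotoxic solvent with surfactant. Injury rated visually versus untreated controls after about ten greenhouse days, 0 (no effect) to 100 (complete control); dash means not tested.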

[3] = tested on: ducksalad; experiment: Test B flooded paddy test; type: in vivo, Heteranthera limosa; conditions: 1000 g ai/ha, visual rating, scale 0 to 100 (0 no effect, 100 complete control), 13 to 15 days
Method in brief: as §1

[4] = tested on: redroot pigweed; experiment: Test A pre-/postemergence herbicide test; type: in vivo, Amaranthus retroflexus
Method in brief: as §2

[5] = tested on: giant foxtail; experiment: Test B pre-/postemergence herbicide test; type: in vivo, Setaria faberi; conditions: for Foxtail, Giant plant response rating: postemergence, visual rating, scale 0 (no effect) to 100 (complete control)
Method in brief: (§3)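 Flooded paddy rice and barnyardgrass were treated at the 2-leaf stage; upland plantings received compound either on sown seed or on 1- to 4-leaf seedlings. All were kept 13–15 days in a greenhouse and scored visually, 0–100, relative to untreated plants.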

[6] = tested on: morningglory; experiment: Test B pre-/postemergence herbicide test; type: in vivo, Ipomoea coccinea; conditions: for Morningglory plant response rating: postemergence, visual rating, scale 0 (no effect) to 100 (complete control)
Method in brief: (§4)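 Evaluation is visual, comparing treated with control plants on a scale where 0 means no effect and 100 means full control. Treatments were preemergence, or postemergence on seedlings 2–18 cm tall, and held 13–15 days in the greenhouse.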

[7] = tested on: blackgrass; experiment: Test B postemergence herbicide test; type: in vivo, Alopecurus myosuroides; conditions: postemergence, visual rating, scale 0 (no effect) to 100 (complete control)
Method in brief: as §1

[8] = tested on: giant foxtail; experiment: Test A pre-/postemergence herbicide test; type: in vivo, Setaria faberi
Method in brief: as §2

[9] = tested on: wild oat; experiment: Test B postemergence herbicide test; type: in vivo, Avena fatua; conditions: postemergence, visual rating, scale 0 (no effect) to 100 (complete control)
Method in brief: (§5)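 Read-out: visual comparison with controls, scored 0 to 100, where 100 means complete control and 0 no effect. Formulated chemicals were applied postemergence to plants 2–18 cm tall (1- to 4-leaf), or to flooded-paddy plants at the 2-leaf stage, then held 13 to 15 days under glass.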

[10] = tested on: velvetleaf; experiment: Test B pre-/postemergence herbicide test; type: in vivo, Abutilon theophrasti; conditions: for Velvetleaf plant response rating: postemergence, visual rating, scale 0 (no effect) to 100 (complete control)
Method in brief: as §3

[11] = tested on: large crabgrass; experiment: Test B pre-/postemergence herbicide test; type: in vivo, Digitaria sanguinalis; conditions: for Crabgrass, Large plant response rating: postemergence, visual rating, scale 0 (no effect) to 100 (complete control)
Method in brief: as §3

[12] = tested on: cocklebur; experiment: Test B pre-/postemergence herbicide test; type: in vivo, Xanthium strumarium; conditions: for Cocklebur plant response rating: postemergence, visual rating, scale 0 (no effect) to 100 (complete control)
Method in brief: as §4

[13] = tested on: corn; experiment: Test B pre-/postemergence herbicide test; type: in vivo, Zea mays; conditions: for Corn plant response rating: postemergence, visual rating, scale 0 (no effect) to 100 (complete control)
Method in brief: as §3

[14] = tested on: rice; experiment: Test B pre-/postemergence herbicide test; type: in vivo, Oryza sativa; conditions: preemergence
Method in brief: as §4

[15] = tested on: wheat; experiment: Test B postemergence herbicide test; type: in vivo, Triticum aestivum; set-up: key to Wheat plant response rating: 0 = no effect, 100 = complete control; conditions: postemergence, visual rating, scale 0 (no effect) to 100 (complete control)
Method in brief: as §5

[16] = tested on: rice; experiment: Test B flooded paddy test; type: in vivo, Oryza sativa; conditions: 1000 g ai/ha, visual rating, scale 0 to 100 (0 no effect, 100 complete control), 13 to 15 days
Method in brief: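 After treating 2-leaf paddy plants or 2–18 cm postemergence plants (1 to 4 leaves) with formulated chemical, researchers kept them in a greenhouse for 13–15 days. Effects were judged visually versus controls: 0 indicates none, 100 total control.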

[17] = tested on: barnyardgrass; experiment: Test B pre-/postemergence herbicide test; type: in vivo, Echinochloa crus-galli; conditions: for Barnyardgrass plant response rating: postemergence, visual rating, scale 0 (no effect) to 100 (complete control)
Method in brief: as §4

[18] = tested on: small flower umbrella sedge; experiment: Test B flooded paddy test; type: in vivo, Cyperus difformis; conditions: 1000 g ai/ha, visual rating, scale 0 to 100 (0 no effect, 100 complete control), 13 to 15 days
Method in brief: as §1

[19] = tested on: Surinam grass; experiment: Test B pre-/postemergence herbicide test; type: in vivo, Urochloa decumbens; conditions: for Surinam Grass plant response rating: postemergence, visual rating, scale 0 (no effect) to 100 (complete control)
Method in brief: as §3

[20] = tested on: lambsquarters; experiment: Test B pre-/postemergence herbicide test; type: in vivo, Chenopodium album; conditions: for Lambsquarters plant response rating: postemergence, visual rating, scale 0 (no effect) to 100 (complete control)
Method in brief: as §3

[21] = tested on: velvetleaf; experiment: Test A pre-/postemergence herbicide test; type: in vivo, Abutilon theophrasti
Method in brief: as §2

[22] = tested on: morningglory; experiment: Test A pre-/postemergence herbicide test; type: in vivo, Ipomoea spp.
Method in brief: as §2

[23] = tested on: barnyardgrass; experiment: Test A pre-/postemergence herbicide test; type: in vivo, Echinochloa crus-galli
Method in brief: as §2

[24] = tested on: pigweed; experiment: Test B pre-/postemergence herbicide test; type: in vivo, Amaranthus retroflexus; conditions: for Pigweed plant response rating: postemergence, visual rating, scale 0 (no effect) to 100 (complete control)
Method in brief: as §3

[25] = Postemergence, 500 g ai/ha, 0 to 100 scale, 0 no effect, 100 complete control
[26] = Postemergence, 2000 g ai/ha, 0 to 100 scale, 0 no effect, 100 complete control
[27] = Preemergence, 2000 g ai/ha, visual rating, 0 to 100 scale (0 no effect, 100 complete control)
[28] = preemergence, 500 g ai/ha, visual injury, 0 to 100 scale (0 no effect, 100 complete control)
[29] = 125 g ai/ha, 0 = no effect, 100 = complete control, preemergence
[30] = 500 g ai/ha, visual rating 0-100, 0 no effect, 100 complete control, preemergence

With `COC(=O)c1cccc(NC(=O)c2sc(C(C)(C)C)nc2C)c1` [Compound 197] the “Barnyardgrass plant response rating” value [1] was 0, the “Crabgrass, Large plant response rating” value [2, 25] was 5 and the “Plant response rating, Crabgrass, Large” value [2, 26] was 10. For the same compound, the “Crabgrass, Large plant response rating” value [2, 27] was 0, the “Crabgrass, Large plant response rating” value [2, 28] was 0 and the “Ducksalad plant response rating” value [3] was 0. For the same compound, the “Pigweed plant response rating” value [4, 25] was 0, the “Plant response rating, Pigweed” value [4, 26] was 5 and the “Pigweed plant response rating” value [4, 27] was 0. The “Pigweed plant response rating” value [4, 28] was 0, the “Foxtail, Giant plant response rating (0 to 100 scale)” value [5, 29] was 0 and the “Plant response rating, Foxtail, Giant” value [5, 30] was 0. For the same compound, the “Foxtail, Giant plant response rating” value ([5]; 125 g ai/ha) was 0, the “Foxtail, Giant plant response rating” value ([5]; 500 g ai/ha) was 0 and the “Morningglory plant response rating (0 to 100 scale)” value [6, 29] was 0. For the same compound, the “Plant response rating, Morningglory” value [6, 30] was 0, the “Morningglory plant response rating” value ([6]; 125 g ai/ha) was 0 and the “Morningglory plant response rating” value ([6]; 500 g ai/ha) was 0. The “Blackgrass plant response rating” value ([7]; 125 g ai/ha) was 0, the “Blackgrass plant response rating” value ([7]; 500 g ai/ha) was 0 and the “Foxtail, Giant plant response rating” value [8, 25] was 0. For the same compound, the “Plant response rating, Foxtail, Giant” value [8, 26] was 5, the “Foxtail, Giant plant response rating” value [8, 27] was 0 and the “Foxtail, Giant plant response rating” value [8, 28] was 0. For the same compound, the “Oat, Wild plant response rating” value ([9]; 125 g ai/ha) was 10, the “Oat, Wild plant response rating” value ([9]; 500 g ai/ha) was 30 and the “Velvetleaf plant response rating (0 to 100 scale)” value [10, 29] was 0. The “Plant response rating, Velvetleaf” value [10, 30] was 0, the “Velvetleaf plant response rating” value ([10]; 125 g ai/ha) was 0 and the “Velvetleaf plant response rating” value ([10]; 500 g ai/ha) was 20. For the same compound, the “Crabgrass, Large plant response rating (0 to 100 scale)” value [11, 29] was 0, the “Plant response rating, Crabgrass, Large” value [11, 30] was 0 and the “Crabgrass, Large plant response rating” value ([11]; 125 g ai/ha) was 0. For the same compound, the “Crabgrass, Large plant response rating” value ([11]; 500 g ai/ha) was 0, the “Cocklebur plant response rating (0 to 100 scale)” value [12, 29] was 0 and the “Plant response rating, Cocklebur” value [12, 30] was 0. For the same compound, the “Cocklebur plant response rating” value ([12]; 125 g ai/ha) was 0, the “Cocklebur plant response rating” value ([12]; 500 g ai/ha) was 10 and the “Corn plant response rating (0 to 100 scale)” value [13, 29] was 0. For the same compound, the “Plant response rating, Corn” value [13, 30] was 0, the “Corn plant response rating” value ([13]; 125 g ai/ha) was 10 and the “Corn plant response rating” value ([13]; 500 g ai/ha) was 20. For the same compound, the “Rice plant response rating (0 to 100 scale)” value ([14]; 125 g ai/ha, 0 = no effect, 100 = complete control) was 0, the “Plant response rating, Rice” value ([14]; 500 g ai/ha, visual rating 0-100, 0 no effect, 100 complete control) was 0 and the “Wheat plant response rating” value ([15]; 125 g ai/ha) was 0. The “Wheat plant response rating” value ([15]; 500 g ai/ha) was 10, the “Rice plant response rating” value [16] was 0 and the “Barnyardgrass plant response rating (0 to 100 scale)” value [17, 29] was 0. For the same compound, the “Plant response rating, Barnyardgrass” value [17, 30] was 10, the “Barnyardgrass plant response rating” value ([17]; 125 g ai/ha) was 0 and the “Barnyardgrass plant response rating” value ([17]; 500 g ai/ha) was 10. The “Sedge, Umbrella plant response rating” value [18] was 0, the “Surinam Grass plant response rating (0 to 100 scale)” value [19, 29] was 0 and the “Plant response rating, Surinam Grass” value [19, 30] was 20. The “Surinam Grass plant response rating” value ([19]; 125 g ai/ha) was 10, the “Surinam Grass plant response rating” value ([19]; 500 g ai/ha) was 20 and the “Lambsquarters plant response rating (0 to 100 scale)” value [20, 29] was 0. For the same compound, the “Plant response rating, Lambsquarters” value [20, 30] was 0, the “Lambsquarters plant response rating” value ([20]; 125 g ai/ha) was 0 and the “Lambsquarters plant response rating” value ([20]; 500 g ai/ha) was 0. The “Velvetleaf plant response rating” value [21, 25] was 5, the “Plant response rating, Velvetleaf” value [21, 26] was 5 and the “Velvetleaf plant response rating” value [21, 27] was 10. For the same compound, the “Velvetleaf plant response rating” value [21, 28] was 0, the “Morningglory plant response rating” value [22, 25] was 0 and the “Plant response rating, Morningglory” value [22, 26] was 0. For the same compound, the “Morningglory plant response rating” value [22, 27] was 5, the “Morningglory plant response rating” value [22, 28] was 0 and the “Barnyardgrass plant response rating” value [23, 25] was 10. The “Plant response rating, Barnyardgrass” value [23, 26] was 0, the “Barnyardgrass plant response rating” value [23, 27] was 0 and the “Barnyardgrass plant response rating” value [23, 28] was 0. For the same compound, the “Pigweed plant response rating (0 to 100 scale)” value [24, 29] was 0, the “Plant response rating, Pigweed” value [24, 30] was 0 and the “Pigweed plant response rating” value ([24]; 125 g ai/ha) was 0. The “Pigweed plant response rating” value ([24]; 500 g ai/ha) was 10.
